Test results reported in publication PMC9283668, “Natural and commercial antibiotic comparison with drugs modeling cell integrity cell stability of Bio-Kinetics changes under morphological topographies cells with lower toxicological characteristics for multidrug resistances problem” (Saudi Journal of Biological Sciences, 2022).

Experiments:
[1] = Experimental: (§1) Pharmacokinetic compartment modelling was used on these novel substances, which had been derived from A. vasica and C. procera. The half-life was determined by the regions under plasma concentration, while the peak plasma concentration as well as timing acquired immediately from the dataset obtained in this investigation. Medicinal phyto-constituents were incorporated to the compartment model and an automatic calculating software tool was coupled with win-Nonlin ® Software to these bioactive chemicals.
Selected compounds were administered using a one-compartment oral dosage model, extract the one-compartment model parameters, the non-compartment model Parameters are necessary. The equations for non-compartment and one-compartment variables are given below respectively. • (1) w = (AUC, T max, T1/2) • (2) β = (ka, ke, V). • (3) β = (ke, V) • (4) CL po = V × Ke
If only oral clearance is required, CL po should be used instead of AUC. When it comes to IV dosage, however, just w = (AUC, T1/2) is required to claim the single dozes changes in (3).
Plasma concertation either orally or via an injection of selected compounds The natural antibiotic compounds by being taken into cells and either bacterial changes and it formed a tragedy to cells as expressed complete changes used in the formation of ATP in cells. The pharmacokinetic description of antibiotic compounds are shown in below equation and represented mathematically by equations (1), (2), (3), (4).(1) dSdt=rS,end+rS,ex-rS,elim (2) rS,end=f(t,S,I,G,E,F,A,KS,end) (3) rS,ex=g(t,MS) (4) rS,elim=h(t,S,I,E,KS,elim)

[2] = format: in vitro ADME
Experimental: as §1, with “[…].” for “vasica and C.”

Row | Compound | T max (Mean) [1] | AUC, area under plasma concentration (Mean) [1] | Half life (Mean) [1] | Absorption capacity (Mean) [2]
1 | Myristyl diglucoside | 0.2 |  |  | 
2 | S-allylcysteine acid |  | 0.1 | 2.1 | 2.1
3 | CCCCC/C=C\C/C=C\CCCCCCCC(=O)O[C@H]1CC[C@@]2(C)C(=CC[C@H]3[C@@H]4CC[C@H]([C@H](C)CC[C@@H](CC)C(C)C)[C@@]4(C)CC[C@@H]32)C1 [B-Sitosteryl linoleate] |  | 0.1 |  | 
